# In ChEMBL document CHEMBL1201862, “PubChem BioAssay data set” (2004):
#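 Test compounds were applied to cells in 96-well plates for 48 hours at 5 doses. Abbreviation: GI50, concentration required for 50% inhibition of growth.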 Activity calls are given as the source filed them. No stated cut-off is given here; in the data, active = GI50 up to about 1.1 µM and inactive = higher.
# Tests used:
# Assay in all cases: inhibition of tumour cell growth, NCI panel, 48 h
# COLO 205 = test system: COLO 205
# UO-31 = test system: UO-31
# MOLT-4 = test system: MOLT-4
# HT-29 = test system: HT-29
# SF-539 = test system: SF-539
# SK-MEL-28 = test system: SK-MEL-28
# OVCAR-5 = test system: OVCAR-5
# RPMI-8226 = test system: RPMI-8226
# OVCAR-4 = test system: OVCAR-4
# CAKI-1 = test system: CAKI-1
# SN12C = test system: SN12C
# SK-MEL-2 = test system: SK-MEL-2
# UACC-257 = test system: UACC-257
# HCT-15 = test system: HCT-15
# HCC 2998 = test system: HCC 2998
# LOX IMVI = test system: LOX IMVI
SMILES,GI50 (COLO 205),GI50 (UO-31),GI50 (MOLT-4),GI50 (HT-29),GI50 (SF-539),GI50 (SK-MEL-28),GI50 (OVCAR-5),GI50 (RPMI-8226),GI50 (OVCAR-4),GI50 (CAKI-1),GI50 (SN12C),GI50 (SK-MEL-2),GI50 (UACC-257),GI50 (HCT-15),GI50 (HCC 2998),GI50 (LOX IMVI)
NC1=NNC(=O)c2nnc3c(C(=O)O)cnn3c2S1,> 100 µM (inactive),> 100 µM (inactive),> 100 µM (inactive),> 100 µM (inactive),> 100 µM (inactive),> 100 µM (inactive),> 100 µM (inactive),> 100 µM (inactive),> 100 µM (inactive),> 100 µM (inactive),> 100 µM (inactive),,,,,
CCOC(=O)[C@H]1CSC[C@@H](C(=O)OC)N1,> 100 µM (inactive),> 100 µM (inactive),> 100 µM (inactive),> 100 µM (inactive),,> 100 µM (inactive),> 100 µM (inactive),> 100 µM (inactive),> 100 µM (inactive),> 100 µM (inactive),> 100 µM (inactive),> 100 µM (inactive),> 100 µM (inactive),> 100 µM,> 100 µM (inactive),> 100 µM (inactive)
O=C1CCSC2=C1SCc1sccc12,> 100 µM (inactive),> 100 µM (inactive),> 100 µM (inactive),,,> 100 µM (inactive),> 100 µM (inactive),79.3 µM (inactive),> 100 µM (inactive),> 100 µM (inactive),> 100 µM (inactive),> 100 µM (inactive),> 100 µM (inactive),> 100 µM,> 100 µM (inactive),> 100 µM (inactive)
NC(=S)N/N=C1/C(=O)N(c2ccccc2)C(=O)C1C(=O)Nc1ccccc1 (stereo not given),> 100 µM (inactive),> 100 µM (inactive),> 100 µM (inactive),> 100 µM (inactive),> 100 µM (inactive),> 100 µM (inactive),> 100 µM (inactive),,> 100 µM (inactive),> 100 µM (inactive),> 100 µM (inactive),> 100 µM (inactive),> 100 µM (inactive),> 100 µM,> 100 µM (inactive),
CN1CC(=O)N2Cc3ccccc3-n3cccc3C2C1 (stereo not given),> 100 µM (inactive),> 100 µM (inactive),,> 100 µM (inactive),> 100 µM (inactive),> 100 µM (inactive),> 100 µM (inactive),,> 100 µM (inactive),> 100 µM (inactive),> 100 µM (inactive),> 100 µM (inactive),> 100 µM (inactive),> 100 µM,> 100 µM (inactive),> 100 µM (inactive)
CC(=O)OCC(OC(C)=O)C(OC(C)=O)C(OC(C)=O)C(=O)CNn1c(-c2ccccc2)nc2ccc(Br)cc2c1=O (stereo not given),> 100 µM (inactive),> 100 µM (inactive),93.3 µM (inactive),> 100 µM (inactive),> 100 µM (inactive),> 100 µM (inactive),> 100 µM (inactive),64.9 µM (inactive),> 100 µM (inactive),87.5 µM (inactive),> 100 µM (inactive),> 100 µM (inactive),> 100 µM (inactive),> 100 µM,,> 100 µM (inactive)
CCCC(=O)CC(C)C(=O)C(=O)NC12CC3CC(CC(C3)C1)C2 (stereo not given),> 100 µM (inactive),> 100 µM (inactive),> 100 µM (inactive),> 100 µM (inactive),,> 100 µM (inactive),> 100 µM (inactive),> 100 µM (inactive),> 100 µM (inactive),> 100 µM (inactive),> 100 µM (inactive),> 100 µM (inactive),> 100 µM (inactive),> 100 µM,> 100 µM (inactive),> 100 µM (inactive)
COC(=O)c1c2c(c(-c3ccccc3)c3c1-c1nc(Cl)ccc1CC3)CCc1ccc(Cl)nc1-2,> 100 µM (inactive),> 100 µM (inactive),> 100 µM (inactive),> 100 µM (inactive),45.5 µM (inactive),> 100 µM (inactive),> 100 µM (inactive),> 100 µM (inactive),> 100 µM (inactive),> 100 µM (inactive),> 100 µM (inactive),,> 100 µM (inactive),> 100 µM,> 100 µM (inactive),> 100 µM (inactive)
O=c1cc(-c2ccccc2)[nH]c2c(F)ccc(F)c12,48.1 µM (inactive),88.3 µM (inactive),46.2 µM (inactive),33.5 µM (inactive),52.8 µM (inactive),59.8 µM (inactive),43.9 µM (inactive),31.1 µM (inactive),> 100 µM (inactive),56.6 µM (inactive),63.5 µM (inactive),16.4 µM (inactive),> 100 µM (inactive),26.7 µM,,49.3 µM (inactive)
COc1ccc(C(=O)C(c2ccc(OC)cc2)C2(O)C(=O)Nc3ccc([N+](=O)[O-])cc32)cc1 (stereo not given),> 100 µM (inactive),> 100 µM (inactive),> 100 µM (inactive),> 100 µM (inactive),11.3 µM (inactive),> 100 µM (inactive),> 100 µM (inactive),> 100 µM (inactive),> 100 µM (inactive),> 100 µM (inactive),12.1 µM (inactive),> 100 µM (inactive),> 100 µM (inactive),> 100 µM,,
CCOc1cc2c(cnc3c4cc(OC)c(OC)cc4ccc23)cc1OC,> 100 µM (inactive),> 100 µM (inactive),> 100 µM (inactive),> 100 µM (inactive),> 100 µM (inactive),> 100 µM (inactive),> 100 µM (inactive),> 100 µM (inactive),> 100 µM (inactive),> 100 µM (inactive),> 100 µM (inactive),> 100 µM (inactive),> 100 µM (inactive),> 100 µM,> 100 µM (inactive),
CN(C)NC(=S)NC12CC3CC(CC(C3)C1)C2,> 100 µM (inactive),> 100 µM (inactive),> 100 µM (inactive),> 100 µM (inactive),> 100 µM (inactive),> 100 µM (inactive),> 100 µM (inactive),,> 100 µM (inactive),> 100 µM (inactive),> 100 µM (inactive),> 100 µM (inactive),> 100 µM (inactive),> 100 µM,> 100 µM (inactive),> 100 µM (inactive)
COc1ccc(NC(=O)CC(=O)N2N=C(N(CCC#N)c3cccc(C)c3)CC2c2ccccc2)cc1 (stereo not given),> 100 µM (inactive),> 100 µM (inactive),> 100 µM (inactive),> 100 µM (inactive),> 100 µM (inactive),> 100 µM (inactive),> 100 µM (inactive),> 100 µM (inactive),> 100 µM (inactive),> 100 µM (inactive),> 100 µM (inactive),> 100 µM (inactive),> 100 µM (inactive),> 100 µM,> 100 µM (inactive),
CC(=O)Nc1ccc(/C=C2\N=C(c3ccccc3)OC2=O)cc1,> 100 µM (inactive),> 100 µM (inactive),87.5 µM (inactive),,,> 100 µM (inactive),> 100 µM (inactive),48.8 µM (inactive),> 100 µM (inactive),,55 µM (inactive),> 100 µM (inactive),> 100 µM (inactive),55.7 µM,36.1 µM (inactive),80.2 µM (inactive)
